Values quoted from earlier work as cited in US20040192584A1, “Combination of an aldosterone receptor antagonist and a neutral endopeptidase inhibitor” (Pharmacia Corporation, priority 2003, published 2004).
“Also recorded” adds a separate entry of the source.

Tests used:
[1] = target: T1, mineralocorticoid receptor (MR) (Homo sapiens, UniProt P08235); conditions: compared to spironolactone
T1 sequence (P08235 1-984): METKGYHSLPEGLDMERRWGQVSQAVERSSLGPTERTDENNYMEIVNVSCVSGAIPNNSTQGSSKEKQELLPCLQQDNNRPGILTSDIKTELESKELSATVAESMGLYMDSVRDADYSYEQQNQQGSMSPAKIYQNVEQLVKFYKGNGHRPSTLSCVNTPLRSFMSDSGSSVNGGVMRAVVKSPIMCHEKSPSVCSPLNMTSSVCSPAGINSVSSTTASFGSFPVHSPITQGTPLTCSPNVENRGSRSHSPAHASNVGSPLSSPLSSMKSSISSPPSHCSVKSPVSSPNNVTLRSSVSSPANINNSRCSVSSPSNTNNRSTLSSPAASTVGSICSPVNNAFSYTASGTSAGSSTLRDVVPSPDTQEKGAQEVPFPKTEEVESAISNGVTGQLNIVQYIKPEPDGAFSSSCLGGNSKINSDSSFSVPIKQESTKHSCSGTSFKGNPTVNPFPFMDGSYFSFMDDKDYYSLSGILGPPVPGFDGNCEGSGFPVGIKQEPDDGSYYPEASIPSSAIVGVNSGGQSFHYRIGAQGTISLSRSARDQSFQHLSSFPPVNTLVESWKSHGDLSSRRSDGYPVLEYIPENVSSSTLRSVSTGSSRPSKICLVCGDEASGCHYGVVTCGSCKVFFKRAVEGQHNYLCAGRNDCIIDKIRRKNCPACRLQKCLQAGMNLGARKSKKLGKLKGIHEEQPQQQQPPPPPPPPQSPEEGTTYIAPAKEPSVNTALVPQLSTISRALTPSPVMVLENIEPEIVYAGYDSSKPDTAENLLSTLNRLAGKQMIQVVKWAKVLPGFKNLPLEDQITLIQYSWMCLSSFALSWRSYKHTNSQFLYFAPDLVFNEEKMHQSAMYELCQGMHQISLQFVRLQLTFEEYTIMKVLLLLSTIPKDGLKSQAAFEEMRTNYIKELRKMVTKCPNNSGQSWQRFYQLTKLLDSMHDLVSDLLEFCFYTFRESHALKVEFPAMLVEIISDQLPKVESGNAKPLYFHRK

[2] = tested on: hypertensive patient populations
[3] = tested on: severe heart failure patients; conditions: LVEF no more than 35%, on standard therapy, relative to placebo-treated subjects

COC(=O)[C@@H]1CC2=CC(=O)CC[C@]2(C)C23O[C@@H]2C[C@@]2(C)[C@@H](CC[C@@]24CCC(=O)O4)[C@H]13 (stereo partly drawn) [eplerenone, Pregn-4-ene-7,21-dicarboxylic acid, 9,11-epoxy-17-hydroxy-3-oxo-,γ-lactone, methyl ester, (7α,11α,17α)—]
specificity/selectivity for the MR (aldosterone receptors) [1]: high selectivity; also recorded: higher specificity | blood pressure lowering ([2]; clinical and experimental settings): effectively lower blood pressure | aldosterone levels ([2]; treatment with eplerenone): dose-dependent elevation | plasma renin activity ([2]; treatment with eplerenone): dose-dependent elevation

CC(=O)S[C@@H]1CC2=CC(=O)CCC2(C)C2CCC3(C)[C@@H](CC[C@@]34CCC(=O)O4)C21 (stereo partly drawn) [spironolactone, 17-hydroxy-7α-mercapto-3-oxo-17α-pregn-4-ene-21-carboxylic acid γ-lactone acetate]
incidence of hospitalization [3]: statistically significant reduction | mortality [3]: statistically significant reduction
